Test results from patent US20220380371A1, “MLL1 INHIBITORS AND ANTI-CANCER AGENTS” (NOVARTIS AG, priority 2019, published 2022).
Read-outs that look alike come from different tables or passages of the source.

What was measured:
[1] = biological target: wild type MLL1 four-member complex (MLL1-4C) (Homo sapiens, UniProt Q03164); assay: MLL1 LC-MS Assay; type: biochemical
Experimental: The compounds of the present disclosure were serially and separately diluted 3-fold in DMSO to obtain a total of eight or twelve concentrations. Then the test compounds at each concentration (120 nL of each) were transferred by Mosquito into white Proxiplate plus 384-well microplate (PerkinElmer). Solutions (6 μL) of 60 nM wild type MLL1 four-member complex (MLL1-4C) and 5 μM SAM in the reaction buffer (20 mM Tris-HCl, pH 8.0, 0.01% Tween 20, 1 mM DTT, 10 mM MgCl2, 0.01% BSA) were added to the wells that were then incubated with the test compound for 20 min. A 6 μL solution of 20 μM of the peptide substrate H3K4me0 (histone H3[1-21]-Biotin) in the reaction buffer was added to initiate each reaction. The final components in the reaction solution include 30 nM MLL1-4C, 2.5 μM SAM, and 10 μM H3K4me0 with varying concentration of the compounds. A positive control consisted of 30 nM MLL1-4C, 2.5 μM SAM, and 10 μM substrate in the absence of the test compound, and a negative control consisted of 2.5 μM SAM, and 10 μM substrate only. Each reaction was incubated at rt for 120 min, then stopped by addition of 3 μL per of quench solution (2.5% TFA with 320 nM d4-SAH). The reaction mixture was centrifuged (Eppendorf centrifuge 5810, Rotor A-4-62) for 2 min at 2000 rpm. The SAH production from the enzymatic assays were monitored by LC-MS/MS on an API 4000 triple quadrupole mass spec with Turbolon Spray (Applied Biosystem) coupled with Prominenece UFLC (Shimazu). The level of SAH production were then normalized based on the values coming from the positive and negative controls to give percent enzyme activities. The data were then fit to a dose response equation using the program Helios (Novartis) to get the IC50 values of the test compounds.

[2] = test system: H3K4me3 in MV4-11 cells; assay: MV4-11 H3K4me3 Cellular ELISA Assay; type: cell-based; details: Homo sapiens, MV4-11, 48 h
Experimental: MV4-11 H3K4me3 Cellular ELISA Assay
MV4-11 (ATCC® CRL-9591™) was cultured with RPMI1640 medium (Thermo Fisher Scientific, cat #11875) supplemented with 10% FBS (Thermo Fisher Scientific, cat #10099141) and 50 U/ml Penicillin-Streptomycin (Thermo Fisher Scientific, cat #10378016) in humidified incubator at 37° C., 5% CO2.
200 nL compounds dissolved in DMSO were serially diluted at 1:3 ratio for 12 points starting from 10 mM and dispensed into each wells of cell culture plates (PDL-coated ViewPlate-384 Black, FTC, PerkinElmer, #6007710). 3,750 MV4-11 cells in 40 μL culture medium were seeded into each well and treated with desired concentration for 48 hours. After treatment, wash cells with cold phosphate based buffer (PBS, pH 7.4) and aspirate the remaining PBS buffer. Crude histone lysate was extracted by 40 μL 0.5M HCl for 1 hour in 4° C. following neutralization by adding 32 μL neutralization buffer (0.5M Sodium phosphate dibasic, pH ˜12.5, 1.25 mM Dithiothreitol, Promega #V3151, Protease Inhibitor Cocktail, Sigma #8340) for each well. 5 μL and 20 μL of histone lysate was loaded to ELISA plate (384 Well Plates, PE HB, White, 6005620) for detection of total H3 and H3K4me3, respectively. Shake the plates gently in 4° C. for overnight. After histone binding, plates were washed with 80 μL PBS/T (PBS with 0.05% Tween-20) and blocked with 50 μL 3% BSA diluted in PBS/T per well for 1 hour. Incubate wells with primary antibody for 1 hour at room temperature using anti-H3K4me3 (CST #9727) and anti-total H3 (CST #9715) diluted 1:2000 in 3% BSA. Plates were then washed with PBS/T for 3 times and incubated with horseradish peroxidase (HRP) conjugated secondary antibody (CST #7074, 1:5000) for 1 hour at room temperature. The abundance of H3K4me3 and total H3 were measured by ECL substrates chemiluminescence (Pierce, #34080) on a plate reader (PerkinElmer EnVison 2104 Mutilable Reader). Percentage inhibition was calculated against DMSO control after normalization of H3K4me3 signal to H3 signal for individual samples. The data were then fit to a dose response curve using GraphPad Prism for IC50 calculation.

[3] = test system: MV4-11 cells; assay: MV4-11 6-Day Cell Growth CTG (CellTiter-Glo) Assay; type: cell-based; details: Homo sapiens, MV4-11, 144 h, MV4-11 cell growth CellTiter-Glo, 6 days
Experimental: MV4-11 6-Day Cell Growth CTG (CellTiter-Glo) Assay
Acute myeloid leukemia cell MV4-11 (ATCC® CRL-9591™) was cultured with RPMI 1640 medium (Thermo Fisher Scientific, cat #11875) supplemented with 10% FBS (Thermo Fisher Scientific, cat #10099141) in humidified incubator at 37° C., 5% CO2. To assess the effect of MLL1 inhibition on cell growth, the compound of the present invention was dissolved in DMSO and serially diluted at 1:3 for 12 points starting from 10 mM then 200 nL for the replicate of each dose per well was dispensed to Viewplate-384 Black (Perkin Elmer). Exponentially growing MV4-11 cells were seeded at the density of 300 cells per well in 40 μL to the plate, so the final compound working concentration starts from 50 μM. After 6 days, 40 μL CellTiter-Glo (Promega, cat #G7573) was added into the cell culture well and luminescence was read with Envision (Perkin Elmer) to determine the viable cells. The percentage inhibition was calculated against the samples treated with DMSO only and the data were used for dose response curve fitting in GraphPad Prism to get the IC50 of representative compound of present invention, which reflects the inhibition of MLL1 activity.

| IC50 ([1]; read-out: LCMS) [µM] | IC50 [2] [µM] | IC50 [3] [µM] | IC50 ([1]; read-out: MLL1 LCMS) [µM] | Compound |
| --- | --- | --- | --- | --- |
| < 0.05 | < 1.9 | < 2 | – | CCc1cc(-c2ccccc2F)cc(N2CC[C@](N)(C(=O)NC3CC3)C2)c1Cn1cnc2c(N)ncnc21 [Example 92, (R)-3-amino-1-(4-((6-amino-9H-purin-9-yl)methyl)-5-ethyl-2′-fluoro-[1,1′-biphenyl]-3-yl)-N-cyclopropylpyrrolidine-3-carboxamide] |
| < 0.05 | < 1.9 | < 2 | – | CCc1cc(-c2cccnc2)cc(N2CC[C@](N)(C(=O)NC3CC3)C2)c1Cn1cnc2c(N)ncnc21 [Example 95] |
| 0.05 to 0.1 | < 1.9 | < 2 | – | CCc1cc(-c2cscn2)cc(N2CC[C@](N)(C(=O)NC3CC3)C2)c1Cn1cnc2c(N)ncnc21 [Example 98, (R)-3-amino-1-(2-((6-amino-9H-purin-9-yl)methyl)-3-ethyl-5-(thiazol-4-yl)phenyl)-N-cyclopropylpyrrolidine-3-carboxamide] |
| < 0.05 | < 1.9 | < 2 | – | CCc1cc(-c2cnccn2)cc(N2CC[C@](N)(C(=O)NC3CC3)C2)c1Cn1cnc2c(N)ncnc21 [Example 100, (R)-3-amino-1-(2-((6-amino-9H-purin-9-yl)methyl)-3-ethyl-5-(pyrazin-2-yl)phenyl)-N-cyclopropylpyrrolidine-3-carboxamide] |
| < 0.05 | < 1.9 | < 2 | – | Nc1ncnc2c1ncn2Cc1c(N2CC[C@](N)(C(=O)NC3CC3)C2)cc(CN2CCOCC2)c(F)c1Cl [Example 103, (R)-3-amino-1-(2-((6-amino-9H-purin-9-yl)methyl)-3-chloro-4-fluoro-5-(morpholinomethyl)phenyl)-N-cyclopropylpyrrolidine-3-carboxamide] |
| < 0.05 | < 1.9 | < 2 | – | N#Cc1c(Cl)ccc(N2CC[C@](N)(C(=O)NC3CC3)C2)c1Cn1cnc2c(N)ncnc21 [Example 104] |
| < 0.05 | < 1.9 | < 2 | – | Nc1ncnc2c1ncn2Cc1c(N2CC[C@](N)(C(=O)NC3CC3)C2)cc(Cl)c(Cl)c1CN1CCOCC1 [Example 105] |
| < 0.05 | 1.9 to 3 | 2 to 3 | – | Nc1ncnc2c1ncn2Cc1c(I)c(F)c2c(c1N1CC[C@](N)(C(=O)NC3CC3)C1)OCC2 [Example 111] |
| < 0.05 | < 1.9 | < 2 | – | CCSc1c(Cl)ccc(N2CC[C@](N)(C(=O)NC3CC3)C2)c1Cn1cnc2c(N)ncnc21 [Example 113] |
| < 0.05 | < 1.9 | < 2 | – | Nc1ncnc2c1ncn2Cc1c(N2CC[C@](N)(C(=O)NC3CCOC3)C2)ccc(F)c1C(F)(F)F (stereo partly drawn) [Example 129] |
| – | < 1.9 | < 2 | < 0.05 | Nc1ncnc2c1ncn2Cc1c(N2CC[C@](N)(C(=O)NC3CC3)C2)ccc(F)c1C1CCCC1 [Example 158] |
| – | < 1.9 | < 2 | 0.05 to 0.1 | Nc1ncnc2c1ncn2Cc1c(N2CCC(N)(C(=O)NC3CC3)C2)ccc(C(F)(F)F)c1Cl (stereo not drawn) [Example 160] |
| – | < 1.9 | 2 to 3 | 0.05 to 0.1 | COCc1c(Cl)cc(Cl)c(N2CC[C@](N)(C(=O)NC3CC3)C2)c1Cn1cnc2c(N)ncnc21 [Example 162] |

The next lines start with the compound.

| Compound | IC50 ([1]; read-out: LCMS) [µM] | IC50 [2] [µM] | IC50 [3] [µM] | IC50 ([1]; read-out: MLL1 LCMS) [µM] |
| --- | --- | --- | --- | --- |
| Nc1ncnc2c1ncn2Cc1c(Br)cc(Cl)cc1N1CC[C@](N)(c2nnn[nH]2)C1 [Example 83, (R)-9-(2-(3-amino-3-(1H-tetrazol-5-yl)pyrrolidin-1-yl)-6-bromo-4-chlorobenzyl)-9H-purin-6-amine] | < 0.05 | < 1.9 | < 2 | – |
| Nc1ncnc2c1ncn2Cc1c(N2CC[C@](N)(C(=O)NC3CC3)C2)cc(-c2cccs2)cc1C(F)(F)F [Example 94] | < 0.05 | < 1.9 | < 2 | – |
| CCc1cc(Cl)cc(N2CC[C@](N)(CO)C2)c1Cn1cnc2c(N)ncnc21 [Example 108] | < 0.05 | < 1.9 | < 2 | – |
| COC[C@@]1(N)CCN(c2ccc3ccccc3c2Cn2cnc3c(N)ncnc32)C1 [Example 109] | 0.05 to 0.1 | < 1.9 | < 2 | – |
| Nc1ncnc2c1ncn2Cc1c(N2CC[C@](N)(C(=O)NCc3cccnc3O)C2)ccc(F)c1C(F)(F)F [Example 120] | 0.05 to 0.1 | < 1.9 | < 2 | – |
| Nc1ncnc2c1ncn2Cc1c(N2CC[C@](N)(C(=O)NCCc3c[nH]cn3)C2)ccc(F)c1C(F)(F)F [Example 121] | < 0.05 | < 1.9 | < 2 | – |
| Nc1ncnc2c1ncn2Cc1c(N2CC[C@](N)(C(=O)NCC3CC3(F)F)C2)ccc(F)c1C(F)(F)F (stereo partly drawn) [Example 122] | < 0.05 | < 1.9 | < 2 | – |
| C[C@@H](NC(=O)[C@@]1(N)CCN(c2ccc(F)c(C(F)(F)F)c2Cn2cnc3c(N)ncnc32)C1)C1CCOCC1 [Example 124] | 0.05 to 0.1 | < 1.9 | < 2 | – |
| Nc1ncnc2c1ncn2Cc1c(N2CC[C@](N)(C(=O)NC3CC34CCOCC4)C2)ccc(F)c1C(F)(F)F (stereo partly drawn) [Example 126] | 0.05 to 0.1 | < 1.9 | < 2 | – |
| COC1CC2(C1)CC2NC(=O)[C@@]1(N)CCN(c2ccc(F)c(C(F)(F)F)c2Cn2cnc3c(N)ncnc32)C1 (stereo partly drawn) [Example 130] | < 0.05 | < 1.9 | < 2 | – |
| Nc1ncnc2c1ncn2Cc1c(N2CC[C@](N)(C(=O)N3CCn4nccc4C3)C2)ccc(F)c1C(F)(F)F [Example 137] | 0.05 to 0.1 | < 1.9 | 2 to 3 | – |
| CCCNC(=O)CCNC(=O)[C@@]1(N)CCN(c2ccc(F)c(C(F)(F)F)c2Cn2cnc3c(N)ncnc32)C1 [Example 139] | 0.05 to 0.1 | < 1.9 | < 2 | – |
| Nc1ncnc2c1ncn2Cc1c(N2CC[C@](N)(c3nnn[nH]3)C2)ccc(Cl)c1I [Example 156] | – | < 1.9 | < 2 | 0.05 to 0.1 |
| [2H]C([2H])([2H])C([2H])([2H])NC(=O)[C@@]1(N)CCN(c2cc(Cl)cc(Br)c2Cn2cnc3c(N)ncnc32)C1 [Example 159] | – | < 1.9 | 2 to 3 | < 0.05 |
| CCc1cc(Cl)cc(N2CC[C@](N)(C(=O)NC(C)C)C2)c1Cn1cnc2c(N)ncnc21 [Example 161] | – | < 1.9 | < 2 | < 0.05 |
